According to ChEMBL document CHEMBL1201862, “PubChem BioAssay data set” (2004):
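Values below derive from 48-hour exposures of cells grown in 96-well plates, with endpoints linearly interpolated between the two concentrations bracketing the appropriate inhibition level. GI50: concentration for 50% inhibition of growth.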 Calls of active or inactive are those of the source. Rule as the data show it: active = GI50 up to about 1.1 µM and inactive = higher.

Tests used:
Test in all cases: growth of human tumour cells (NCI), 48 h
A498 = tested on: A498
CCRF-CEM = tested on: CCRF-CEM
DU-145 = tested on: DU-145
EKVX = tested on: EKVX
HCC 2998 = tested on: HCC 2998
HCT-116 = tested on: HCT-116
HL-60 = tested on: HL-60
KM12 = tested on: KM12
MDA-MB-435 = tested on: MDA-MB-435
NCI-H23 = tested on: NCI-H23
NCI-H460 = tested on: NCI-H460
NCI/ADR-RES = tested on: NCI/ADR-RES
OVCAR-4 = tested on: OVCAR-4
RPMI-8226 = tested on: RPMI-8226
SK-MEL-2 = tested on: SK-MEL-2
SK-OV-3 = tested on: SK-OV-3
SNB-75 = tested on: SNB-75
U-251 = tested on: U-251
UACC-257 = tested on: UACC-257
UACC-62 = tested on: UACC-62

| Compound | GI50 (A498) | GI50 (CCRF-CEM) | GI50 (DU-145) | GI50 (EKVX) | GI50 (HCC 2998) | GI50 (HCT-116) | GI50 (HL-60) | GI50 (KM12) | GI50 (MDA-MB-435) | GI50 (NCI-H23) | GI50 (NCI-H460) | GI50 (NCI/ADR-RES) | GI50 (OVCAR-4) | GI50 (RPMI-8226) | GI50 (SK-MEL-2) | GI50 (SK-OV-3) | GI50 (SNB-75) | GI50 (U-251) | GI50 (UACC-257) | GI50 (UACC-62) |
| --- | --- | --- | --- | --- | --- | --- | --- | --- | --- | --- | --- | --- | --- | --- | --- | --- | --- | --- | --- | --- |
| CCOC(=O)/C(SC#N)=C(/N)N1CCCC1 | > 60 µM (inactive) | > 100 µM (inactive) | > 100 µM (inactive) | > 100 µM (inactive) | > 100 µM (inactive) | > 100 µM (inactive) | > 100 µM (inactive) | > 100 µM (inactive) | > 100 µM (inactive) | > 100 µM (inactive) | > 100 µM (inactive) | > 100 µM (inactive) | > 100 µM (inactive) | > 100 µM (inactive) | > 100 µM (inactive) | > 100 µM (inactive) | > 94.8 µM (inactive) | > 100 µM (inactive) | > 100 µM (inactive) | > 100 µM (inactive) |
| CN(C)/N=N/c1ccc(NC=O)cc1 | > 100 µM (inactive) | 40.7 µM (inactive) | > 100 µM (inactive) | > 100 µM (inactive) | > 100 µM (inactive) | > 100 µM (inactive) | 51.9 µM (inactive) | > 100 µM (inactive) | > 100 µM (inactive) | – | > 100 µM (inactive) | > 100 µM (inactive) | > 100 µM (inactive) | 69 µM (inactive) | > 100 µM (inactive) | > 100 µM (inactive) | > 100 µM (inactive) | > 100 µM (inactive) | > 100 µM (inactive) | 40.6 µM (inactive) |
| CCC1(O)CC(O)c2c(O)c3c(c(O)c2C1C(=O)OC)C(=O)c1cccc(O)c1C3=O (configuration not stated) | 3.78 µM (inactive) | 1.53 µM (inactive) | 5.42 µM (inactive) | 2.18 µM (inactive) | 4.43 µM (inactive) | 2.89 µM (inactive) | 0.794 µM (active) | 1.1 µM (active) | 5.45 µM (inactive) | 3.29 µM (inactive) | 1.7 µM (inactive) | 0.656 µM (active) | 2.96 µM (inactive) | 2.21 µM (inactive) | 3.12 µM (inactive) | 4.49 µM (inactive) | 6.31 µM (inactive) | 3.74 µM (inactive) | 3.65 µM (inactive) | 3 µM (inactive) |
| Cc1c(S(=O)(=O)c2ccccc2)c(N)n(CCN(C)C)c1C | > 100 µM (inactive) | > 100 µM (inactive) | > 100 µM (inactive) | > 100 µM (inactive) | 75 µM (inactive) | > 100 µM (inactive) | > 100 µM (inactive) | > 100 µM (inactive) | > 100 µM (inactive) | > 100 µM (inactive) | > 100 µM (inactive) | > 100 µM (inactive) | > 100 µM (inactive) | > 100 µM (inactive) | > 100 µM (inactive) | > 100 µM (inactive) | > 100 µM (inactive) | > 100 µM (inactive) | > 100 µM (inactive) | > 100 µM (inactive) |
| CNC(=S)N/N=C(\C)c1nc2cccnc2[nH]1 | > 100 µM (inactive) | 24.4 µM (inactive) | 55.2 µM (inactive) | 47 µM (inactive) | 19.1 µM (inactive) | 30 µM (inactive) | 17.6 µM (inactive) | 46.6 µM (inactive) | 77.1 µM (inactive) | – | 29.9 µM (inactive) | 15.3 µM (inactive) | 4.12 µM (inactive) | 71.9 µM (inactive) | > 63.5 µM (inactive) | 31.8 µM (inactive) | > 70.6 µM (inactive) | 39.8 µM (inactive) | 60.8 µM (inactive) | 6.34 µM (inactive) |
| CS(=O)(=O)OCCCNCCCOS(C)(=O)=O | 1330 µM (inactive) | 262 µM (inactive) | 627 µM (inactive) | 1810 µM (inactive) | 1280 µM (inactive) | 1440 µM (inactive) | 201 µM (inactive) | 2080 µM (inactive) | 2340 µM (inactive) | 904 µM (inactive) | 156 µM (inactive) | 1600 µM (inactive) | 2130 µM (inactive) | 1310 µM (inactive) | 1940 µM (inactive) | 1550 µM (inactive) | 1580 µM (inactive) | 893 µM (inactive) | 1850 µM (inactive) | 393 µM (inactive) |
| OC[P+](CO)(CO)C12CC3CC(CC(C3)C1)C2 | > 100 µM (inactive) | 4.9 µM (inactive) | > 100 µM (inactive) | > 100 µM (inactive) | > 100 µM (inactive) | > 87.3 µM (inactive) | 10.3 µM (inactive) | > 100 µM (inactive) | > 100 µM (inactive) | > 88.3 µM (inactive) | 76.4 µM (inactive) | > 100 µM (inactive) | > 48.3 µM (inactive) | 21.9 µM (inactive) | > 100 µM (inactive) | > 100 µM (inactive) | > 64.4 µM (inactive) | > 100 µM (inactive) | > 100 µM (inactive) | > 100 µM (inactive) |
| C=CC1=C(C)c2cc3[nH]c(c4c5nc(cc6[nH]c(cc1n2)c(C)c6CC)C=C5C(=O)C4C(=O)OC)C(CCC(=O)OC/C=C(\C)CCCC(C)CCCC(C)CCCC(C)C)C3C.C=CC1=C(C)c2cc3[nH]c(c4c5nc(cc6[nH]c(cc1n2)c(C=O)c6CC)C=C5C(=O)C4C(=O)OC)C(CCC(=O)OC/C=C(\C)CCCC(C)CCCC(C)CCCC(C)C)C3C (configuration not stated) | > 100 µM (inactive) | 10 µM (inactive) | > 100 µM (inactive) | 50.6 µM (inactive) | > 100 µM (inactive) | > 100 µM (inactive) | 10 µM (inactive) | > 100 µM (inactive) | > 100 µM (inactive) | > 100 µM (inactive) | > 100 µM (inactive) | > 100 µM (inactive) | > 100 µM (inactive) | > 100 µM (inactive) | > 100 µM (inactive) | > 100 µM (inactive) | > 100 µM (inactive) | > 100 µM (inactive) | > 100 µM (inactive) | > 100 µM (inactive) |
| COc1ccc2c(c1)Cc1c(NCCN(C)C)ccc(C(=O)NCCCN(C)CCCNC(=O)c3ccc(NCCN(C)C)c4c3Nc3ccc(OC)cc3C4)c1N2 | < 0.0404 µM (active) | < 0.0393 µM (active) | < 0.01 µM (active) | 0.116 µM (active) | < 0.01 µM (active) | < 0.01 µM (active) | 0.0358 µM (active) | < 0.01 µM (active) | < 0.01 µM (active) | < 0.0212 µM (active) | < 0.01 µM (active) | 4.2 µM (inactive) | < 0.0184 µM (active) | < 0.01 µM (active) | < 0.01 µM (active) | < 0.01 µM (active) | < 0.01 µM (active) | < 0.01 µM (active) | 0.0303 µM (active) | < 0.0228 µM (active) |
| CCOC(=O)c1csc(NC(=O)C(C)N2CCCCC2)n1 (configuration not stated) | > 100 µM (inactive) | > 100 µM (inactive) | > 100 µM (inactive) | > 100 µM (inactive) | > 100 µM (inactive) | – | > 100 µM (inactive) | > 100 µM (inactive) | > 100 µM (inactive) | > 100 µM (inactive) | > 100 µM (inactive) | > 100 µM (inactive) | > 100 µM (inactive) | > 100 µM (inactive) | > 100 µM (inactive) | > 100 µM (inactive) | > 100 µM (inactive) | > 100 µM (inactive) | > 100 µM (inactive) | > 100 µM (inactive) |
| COc1ccc(C2=C(N)c3c(Cl)cccc3C2=O)cc1 | > 100 µM (inactive) | > 100 µM (inactive) | > 100 µM (inactive) | > 100 µM (inactive) | > 100 µM (inactive) | 83.9 µM (inactive) | > 100 µM (inactive) | > 100 µM (inactive) | > 100 µM (inactive) | 32.6 µM (inactive) | > 100 µM (inactive) | 50 µM (inactive) | > 100 µM (inactive) | > 100 µM (inactive) | > 100 µM (inactive) | 55.3 µM (inactive) | > 100 µM (inactive) | 49.3 µM (inactive) | > 100 µM (inactive) | > 100 µM (inactive) |
| CC(=O)[C@H]1CC[C@@H]2[C@]1(C)CC=C1[C@]23C=C[C@]2(C[C@@H](O)CC[C@]12C)C(C(=O)O)C3C(=O)O (some centres not stated) | > 100 µM (inactive) | > 100 µM (inactive) | > 100 µM (inactive) | > 100 µM (inactive) | > 100 µM (inactive) | > 100 µM (inactive) | > 100 µM (inactive) | > 100 µM (inactive) | > 100 µM (inactive) | > 100 µM (inactive) | > 100 µM (inactive) | > 100 µM (inactive) | > 100 µM (inactive) | > 100 µM (inactive) | > 100 µM (inactive) | > 100 µM (inactive) | > 100 µM (inactive) | > 100 µM (inactive) | > 100 µM (inactive) | > 100 µM (inactive) |
| Cn1c(=O)c2nc3c(=O)n(C)c(=O)n(CC(N)=O)c3nc2n(C)c1=O | > 100 µM (inactive) | > 100 µM (inactive) | > 100 µM (inactive) | > 100 µM (inactive) | > 100 µM (inactive) | > 100 µM (inactive) | > 100 µM (inactive) | > 100 µM (inactive) | > 100 µM (inactive) | > 100 µM (inactive) | > 100 µM (inactive) | > 100 µM (inactive) | > 100 µM (inactive) | > 100 µM (inactive) | > 100 µM (inactive) | > 100 µM (inactive) | > 100 µM (inactive) | > 100 µM (inactive) | > 100 µM (inactive) | > 100 µM (inactive) |
